What was measured:
[1] = Permeability from apical to basolateral side in MDCK2-MDR1 cells at pH 7.4; type: ADME, cell-based, Canis lupus familiaris, MDCK-II; conditions: dog, MDCK-MDR1, pH 7.4; read-out: permeability
[2] = molecular target: Protein kinase C alpha type (Homo sapiens, UniProt P17252)
[3] = Unbound intrinsic clearance in rat microsomes; type: ADME, Microsome
[4] = molecular target: T1, Protein kinase C theta type (Homo sapiens, UniProt Q04759)
Description: Inhibition of human recombinant PKCtheta expressed in Sf21 cells using Bio-cdc peptide substrate and ATP after 60 mins by time-resolved fluorescence in-vitro kinase assay

[5] = Unbound intrinsic clearance in human microsomes; type: ADME, Microsome
cells = conditions: Homo sapiens, T-Blast, 24 h
Description: Inhibition of anti-CD3/anti-CD28 antibody-induced IL2 production in human T-Blast cells after 24 hrs

[6] = molecular target: Protein kinase C delta type (Homo sapiens, UniProt Q05655); experiment: Inhibition of human recombinant PKCdelta expressed in Sf21 cells using Bio-cdc peptide substrate and ATP after 60 mins by time-resolved fluorescence in-vitro kinase assay
Chain of Protein kinase C delta type (Q05655 whole entry): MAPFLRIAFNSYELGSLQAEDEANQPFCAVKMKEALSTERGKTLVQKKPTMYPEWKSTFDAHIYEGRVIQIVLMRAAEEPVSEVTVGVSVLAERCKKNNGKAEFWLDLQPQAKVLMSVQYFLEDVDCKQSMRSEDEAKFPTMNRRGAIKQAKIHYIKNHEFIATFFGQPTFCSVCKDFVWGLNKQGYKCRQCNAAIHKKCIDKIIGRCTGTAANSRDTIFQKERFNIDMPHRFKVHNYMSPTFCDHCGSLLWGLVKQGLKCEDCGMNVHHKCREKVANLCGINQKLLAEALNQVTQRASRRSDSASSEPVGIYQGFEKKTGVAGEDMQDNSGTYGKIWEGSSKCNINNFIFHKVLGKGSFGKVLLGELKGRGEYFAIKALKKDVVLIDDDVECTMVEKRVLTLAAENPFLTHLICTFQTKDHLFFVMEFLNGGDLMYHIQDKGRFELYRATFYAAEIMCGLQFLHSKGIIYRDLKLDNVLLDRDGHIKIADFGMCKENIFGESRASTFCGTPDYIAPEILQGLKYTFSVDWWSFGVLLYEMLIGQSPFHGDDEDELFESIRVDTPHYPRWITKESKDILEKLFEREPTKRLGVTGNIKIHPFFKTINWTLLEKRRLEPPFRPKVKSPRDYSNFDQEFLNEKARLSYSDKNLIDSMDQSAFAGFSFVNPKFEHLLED

[7] = molecular target: Protein kinase C beta type (Homo sapiens, UniProt P05771); experiment: Inhibition of human recombinant PKCbeta expressed in Sf21 cells using Bio-cdc peptide substrate and ATP after 60 mins by time-resolved fluorescence in-vitro kinase assay
Chain of Protein kinase C beta type (P05771 whole entry): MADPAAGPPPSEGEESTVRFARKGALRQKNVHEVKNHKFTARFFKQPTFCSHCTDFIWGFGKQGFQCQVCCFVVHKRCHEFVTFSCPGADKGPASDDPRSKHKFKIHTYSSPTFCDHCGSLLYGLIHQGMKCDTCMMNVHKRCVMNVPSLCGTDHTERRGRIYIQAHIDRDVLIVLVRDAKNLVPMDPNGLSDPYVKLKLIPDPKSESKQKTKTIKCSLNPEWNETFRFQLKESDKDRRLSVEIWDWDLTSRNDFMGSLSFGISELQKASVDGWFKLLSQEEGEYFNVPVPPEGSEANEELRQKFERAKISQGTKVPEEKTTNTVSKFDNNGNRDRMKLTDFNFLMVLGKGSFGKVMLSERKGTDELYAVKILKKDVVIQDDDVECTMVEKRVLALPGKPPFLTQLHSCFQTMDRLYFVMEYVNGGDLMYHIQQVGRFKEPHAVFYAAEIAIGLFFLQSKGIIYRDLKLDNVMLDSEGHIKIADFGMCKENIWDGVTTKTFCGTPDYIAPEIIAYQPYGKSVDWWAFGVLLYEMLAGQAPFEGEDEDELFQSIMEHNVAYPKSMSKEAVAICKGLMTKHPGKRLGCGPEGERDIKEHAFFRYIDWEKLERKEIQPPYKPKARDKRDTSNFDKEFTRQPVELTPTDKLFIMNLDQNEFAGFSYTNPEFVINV

[8] = Cmax in rat at 1 mg/kg, iv or 3 mg/kg, po; type: ADME, organism-based; conditions: in vivo
[9] = AUC in rat at 1 mg/kg, iv or 3 mg/kg, po; type: ADME, organism-based; conditions: plasma
[10] = Oral bioavailability in rat at 3 mg/kg; type: ADME, organism-based; conditions: in vivo
[11] = molecular target: Protein kinase C gamma type (Homo sapiens, UniProt P05129); experiment: Inhibition of human recombinant PKCgamma expressed in Sf21 cells using Bio-cdc peptide substrate and ATP after 60 mins by time-resolved fluorescence in-vitro kinase assay
[12] = Plasma clearance in rat at 1 mg/kg, iv or 3 mg/kg, po; type: ADME, organism-based
[13] = Half life in rat at 1 mg/kg, iv or 3 mg/kg, po; type: ADME, organism-based; conditions: in vivo
[14] = Unbound intrinsic clearance in mouse microsomes; type: ADME, Microsome
[15] = molecular target: T1, Protein kinase C theta type; experiment: Inhibition of human recombinant PKCtheta by TR-FRET assay
Focal adhesion kinase 1 = Focal adhesion kinase 1 (Homo sapiens, UniProt Q05397); experiment: Inhibition of FAK (unknown origin) by TR-FRET assay
Chain of Focal adhesion kinase 1 (Q05397 whole entry, the tested form may be a part): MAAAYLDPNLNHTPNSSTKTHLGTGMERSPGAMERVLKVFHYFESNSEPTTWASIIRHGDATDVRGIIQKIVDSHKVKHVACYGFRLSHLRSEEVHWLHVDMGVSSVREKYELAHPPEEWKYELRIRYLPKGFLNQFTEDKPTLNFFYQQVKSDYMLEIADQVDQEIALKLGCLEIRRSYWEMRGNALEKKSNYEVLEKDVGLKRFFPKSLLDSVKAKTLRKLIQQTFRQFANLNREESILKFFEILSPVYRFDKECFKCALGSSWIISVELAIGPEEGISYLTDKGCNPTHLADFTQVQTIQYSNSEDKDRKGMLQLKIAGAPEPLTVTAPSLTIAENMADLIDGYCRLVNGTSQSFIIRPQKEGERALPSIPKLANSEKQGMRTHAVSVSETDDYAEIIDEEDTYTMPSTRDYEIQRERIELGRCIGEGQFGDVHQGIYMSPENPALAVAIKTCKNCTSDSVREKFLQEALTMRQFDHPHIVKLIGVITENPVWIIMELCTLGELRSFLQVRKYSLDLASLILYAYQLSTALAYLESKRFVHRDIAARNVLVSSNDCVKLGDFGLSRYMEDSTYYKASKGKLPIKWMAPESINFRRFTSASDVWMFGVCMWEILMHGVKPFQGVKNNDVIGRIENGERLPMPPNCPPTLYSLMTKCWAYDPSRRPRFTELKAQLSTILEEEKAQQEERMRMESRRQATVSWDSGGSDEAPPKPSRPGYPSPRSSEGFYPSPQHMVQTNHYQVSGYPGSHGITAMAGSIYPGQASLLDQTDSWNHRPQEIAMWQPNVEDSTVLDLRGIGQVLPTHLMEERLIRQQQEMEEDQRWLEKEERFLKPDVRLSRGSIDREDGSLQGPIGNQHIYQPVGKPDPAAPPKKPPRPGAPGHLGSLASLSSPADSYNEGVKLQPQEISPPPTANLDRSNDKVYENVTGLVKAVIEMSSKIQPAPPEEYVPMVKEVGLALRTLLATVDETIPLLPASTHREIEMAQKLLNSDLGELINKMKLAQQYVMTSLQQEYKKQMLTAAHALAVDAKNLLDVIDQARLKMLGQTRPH

Rattus norvegicus [16] = experiment: Increase in left ventricular dP/dt50 in rat cardiovascular model at plasma concentration of 1.3 uM dosed over 30 mins infusions; conditions: in vivo, iv, 0.5 h
Rattus norvegicus [17] = experiment: Increase in left ventricular dP/dt50 in rat cardiovascular model at plasma concentration of 9.7 uM dosed over 30 mins infusions; conditions: in vivo, iv, 0.5 h
Rattus norvegicus [18] = experiment: Increase in left ventricular dP/dt50 in rat cardiovascular model at plasma concentration of 5.8 uM dosed over 30 mins infusions; conditions: in vivo, iv, 0.5 h
[19] = molecular target: T2, Protein kinase C zeta type (Homo sapiens, UniProt Q05513); experiment: Inhibition of human recombinant PKCzeta expressed in Sf21 cells using Bio-cdc peptide substrate and ATP after 60 mins by time-resolved fluorescence in-vitro kinase assay
T2 sequence (Q05513 whole entry): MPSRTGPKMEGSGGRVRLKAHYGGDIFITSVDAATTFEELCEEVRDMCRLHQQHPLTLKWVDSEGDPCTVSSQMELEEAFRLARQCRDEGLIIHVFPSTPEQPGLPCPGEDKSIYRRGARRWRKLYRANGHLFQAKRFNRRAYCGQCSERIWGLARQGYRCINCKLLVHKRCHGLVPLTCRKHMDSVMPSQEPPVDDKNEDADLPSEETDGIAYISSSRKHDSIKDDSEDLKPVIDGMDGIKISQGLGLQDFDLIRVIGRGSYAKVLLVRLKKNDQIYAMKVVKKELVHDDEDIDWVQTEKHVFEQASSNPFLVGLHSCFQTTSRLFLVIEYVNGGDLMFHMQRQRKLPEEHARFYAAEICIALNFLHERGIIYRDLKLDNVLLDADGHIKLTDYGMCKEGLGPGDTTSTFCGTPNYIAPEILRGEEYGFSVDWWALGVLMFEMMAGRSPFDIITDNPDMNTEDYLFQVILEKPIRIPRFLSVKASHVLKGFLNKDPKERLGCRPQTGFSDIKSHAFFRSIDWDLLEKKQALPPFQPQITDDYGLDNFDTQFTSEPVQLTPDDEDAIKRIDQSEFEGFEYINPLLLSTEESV

[20] = Inhibition of human recombinant […] expressed in Sf21 cells using Bio-cdc peptide substrate and ATP after 60 mins by time-resolved fluorescence in-vitro kinase assay
[21] = molecular target: T3, Protein kinase C epsilon type (Homo sapiens, UniProt Q02156); experiment: Inhibition of human recombinant PKCepsilon expressed in Sf21 cells using Bio-cdc peptide substrate and ATP after 60 mins by time-resolved fluorescence in-vitro kinase assay
T3 sequence (Q02156 whole entry): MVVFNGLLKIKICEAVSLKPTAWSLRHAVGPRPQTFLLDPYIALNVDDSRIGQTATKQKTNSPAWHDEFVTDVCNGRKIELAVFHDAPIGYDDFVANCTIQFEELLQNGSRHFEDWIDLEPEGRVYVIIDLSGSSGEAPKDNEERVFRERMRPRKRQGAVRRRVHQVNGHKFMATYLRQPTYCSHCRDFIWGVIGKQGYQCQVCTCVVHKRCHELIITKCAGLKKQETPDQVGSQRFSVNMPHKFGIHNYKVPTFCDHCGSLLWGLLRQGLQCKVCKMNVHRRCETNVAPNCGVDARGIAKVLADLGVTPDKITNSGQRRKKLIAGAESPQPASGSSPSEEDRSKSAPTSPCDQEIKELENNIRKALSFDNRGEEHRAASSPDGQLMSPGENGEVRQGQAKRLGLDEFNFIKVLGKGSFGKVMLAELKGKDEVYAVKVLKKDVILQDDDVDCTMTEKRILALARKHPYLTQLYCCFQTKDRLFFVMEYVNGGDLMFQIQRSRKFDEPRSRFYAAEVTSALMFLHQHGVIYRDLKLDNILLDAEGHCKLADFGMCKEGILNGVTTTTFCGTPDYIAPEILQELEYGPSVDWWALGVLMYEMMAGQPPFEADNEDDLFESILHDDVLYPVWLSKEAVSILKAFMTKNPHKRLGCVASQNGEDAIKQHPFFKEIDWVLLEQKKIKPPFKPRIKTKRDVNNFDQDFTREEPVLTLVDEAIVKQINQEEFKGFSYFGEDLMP

T1 sequence (Q04759 whole entry): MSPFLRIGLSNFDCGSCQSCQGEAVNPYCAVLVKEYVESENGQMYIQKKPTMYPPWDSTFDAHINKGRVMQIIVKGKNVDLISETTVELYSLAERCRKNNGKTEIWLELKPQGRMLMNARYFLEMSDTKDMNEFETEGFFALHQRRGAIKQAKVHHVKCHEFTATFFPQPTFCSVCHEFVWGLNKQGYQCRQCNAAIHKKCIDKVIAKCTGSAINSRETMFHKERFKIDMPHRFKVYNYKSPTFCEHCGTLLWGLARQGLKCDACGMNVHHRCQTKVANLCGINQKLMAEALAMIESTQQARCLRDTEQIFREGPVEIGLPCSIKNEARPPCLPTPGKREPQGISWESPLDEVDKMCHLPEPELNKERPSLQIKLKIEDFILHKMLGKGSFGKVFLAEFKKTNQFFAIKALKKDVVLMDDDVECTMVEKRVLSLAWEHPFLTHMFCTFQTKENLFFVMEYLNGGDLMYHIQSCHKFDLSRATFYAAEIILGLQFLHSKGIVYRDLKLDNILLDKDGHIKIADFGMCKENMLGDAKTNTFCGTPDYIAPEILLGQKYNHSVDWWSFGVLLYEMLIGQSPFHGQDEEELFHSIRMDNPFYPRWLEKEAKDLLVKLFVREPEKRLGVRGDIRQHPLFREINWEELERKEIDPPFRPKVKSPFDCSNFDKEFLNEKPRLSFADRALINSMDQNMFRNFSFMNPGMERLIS

Papp A→B [1] | IC50 [2] | IC50 [4] | CL free [5] | IC50 (cells) | Structure (SMILES) | also measured
4.2 nm/s | 9.4 µM | 0.23 µM | 2 L/h/kg | 2.7 µM | CC1C(=O)NN=C2COc3ccc(NC4CNC4)cc3N21 (stereo unspecified) | CL free [3]: 2.9 L/h/kg
 |  | 19 µM |  |  | O=C1CN2C(=NN1)COc1ccc(NC(=O)C3CNC3)cc12 | 
 |  | 4.5 µM |  |  | CN1CCC(C(=O)Nc2ccc3c(c2)N2CC(=O)NN=C2CO3)CC1 | 
 |  | 14 µM |  |  | O=C1CN2C(=NN1)COc1ccc(NC3CCCNC3)cc12 (stereo unspecified) | 
3.1 nm/s | 4.1 µM | 0.11 µM | < 2 L/h/kg | 0.43 µM | Cc1cc2c(cc1NC1CNC1)N1C(=NNC(=O)C1C)CO2 (stereo unspecified) | CL free [3]: 3.7 L/h/kg
8.5 nm/s | 2.2 µM |  | 3.4 L/h/kg | 0.23 µM | CC1C(=O)NN=C2COc3cc(C(F)(F)F)c(NC4CNC4)cc3N21 (stereo unspecified) | CL free [3]: < 4 L/h/kg
 |  | 18 µM |  |  | CC(N)CNc1ccc2c(c1)N1CC(=O)NN=C1CO2 (stereo unspecified) | 
 | 7.1 µM | 1.3 µM |  |  | O=C1CN2C(=NN1)COc1ccc(NC3CNC3)cc12 | 
 |  | 3.3 µM |  |  | O=C1CN2C(=NN1)COc1ccc(NC3CCNC3)cc12 (stereo unspecified) | 
 |  | 21 µM |  |  | O=C1CN2C(=NN1)COc1ccc(NC3CCNCC3)cc12 | 
3.5 nm/s | 5.1 µM | 0.055 µM | 2.4 L/h/kg | 0.27 µM | Cc1cc2c(cc1NC1CNC1)N1C(=NNC(=O)[C@H]1C)CO2 | IC50 [6]: 0.75 µM; IC50 [7]: 0.52 µM; Cmax [8]: 8.7 ng/mL; AUC [9]: 0.06 µg·h/mL; bioavailability [10]: 9.2%; IC50 [11]: 23 µM; clearance [12]: 4.9 L/h/kg; half-life [13]: 3 h
2.8 nm/s | 2.2 µM | 0.13 µM | < 2 L/h/kg | 0.34 µM | CC(C)c1cc2c(cc1NC1CNC1)N1C(=NNC(=O)C1C)CO2 (stereo unspecified) | CL free [3]: 5.3 L/h/kg
 |  | 3.5 µM |  |  | O=C1CN2C(=NN1)COc1ccc(NC(=O)C3CCNCC3)cc12 | 
 |  | 8.9 µM |  |  | O=C1CN2C(=NN1)COc1ccc(NC3CCCNCC3)cc12 (stereo unspecified) | 
5 nm/s | 1.6 µM | 0.059 µM | < 2.8 L/h/kg | 0.39 µM | CC1C(=O)NN=C2COc3cc(C(F)(F)F)c(CC4CNC4)cc3N21 (stereo unspecified) | CL free [3]: 4.9 L/h/kg
2.3 nm/s | 6.6 µM | 0.76 µM | 6.6 L/h/kg | 2.4 µM | C[C@H]1C(=O)NN=C2COc3cc(-c4ccccc4)c(NC4CNC4)cc3N21 | CL free [3]: < 6.2 L/h/kg; CL free [14]: 25 L/h/kg
2.5 nm/s | 2.9 µM |  | 5.1 L/h/kg | 1 µM | C[C@H]1C(=O)NN=C2COc3cc(C(F)(F)F)c(NC4CNC4)cc3N21 | CL free [3]: 7.1 L/h/kg; CL free [14]: < 7.2 L/h/kg
 |  | 17 µM |  |  | O=C1CN2C(=NN1)COc1ccc(NCC3CNC3)cc12 | 

Papp A→B [1] | IC50 [2] | IC50 [4] | CL free [5] | IC50 (cells) | Structure (SMILES) | also measured
 |  | 16 µM |  |  | CN(C)Cc1ccc2c(c1)OCC1=NNC(=O)CN12 | 
8.6 nm/s | 6.9 µM | 0.1 µM | < 1.6 L/h/kg | 0.31 µM | CC1C(=O)NN=C2COc3cc(F)c(NC4CNC4)cc3N21 (stereo unspecified) | CL free [3]: 3 L/h/kg
 | 3 µM | 0.19 µM | 3.1 L/h/kg | 0.91 µM | CC1C(=O)NN=C2COc3cc(C(F)(F)F)c(OC4CNC4)cc3N21 (stereo unspecified) | CL free [3]: < 4.4 L/h/kg
 | > 50 µM | 453 µM |  |  | O=C1CN2C(=NN1)COc1ccccc12 | IC50 [15]: 19 µM; IC50 (Focal adhesion kinase 1): 156 µM
 |  | 38 µM |  |  | O=C1CN2C(=NN1)COc1ccc(NC3CCC3)cc12 | 
 | 5.4 µM | 1 µM |  |  | CCC1C(=O)NN=C2COc3ccc(NC4CNC4)cc3N21 (stereo unspecified) | 
 |  | 46 µM |  |  | O=C1CN2C(=NN1)COc1ccc(NC(=O)C3CCNC3)cc12 (stereo unspecified) | 
 |  | 20 µM |  |  | O=C1CN2C(=NN1)COc1ccc(NCC3CCNC3)cc12 (stereo unspecified) | 
 |  | 46 µM |  |  | CN(C)CC(=O)Nc1ccc2c(c1)N1CC(=O)NN=C1CO2 | 
 | > 50 µM | 3.5 µM |  |  | O=C1NN=C2COc3ccc(NC4CNC4)cc3N2C1C1CC1 (stereo unspecified) | 
 |  |  |  |  | CN1CCN(c2nc(C3=C(c4c[nH]c5ccccc45)C(=O)NC3=O)c3ccccc3n2)CC1 [SOTRASTAURIN] | Activity (Rattus norvegicus [16]): 14%; Activity (Rattus norvegicus [17]): 76%; Activity (Rattus norvegicus [18]): 35%
2.7 nm/s | 1.8 µM | 0.049 µM | 5.4 L/h/kg | 0.12 µM | C[C@@H]1C(=O)NN=C2COc3cc(-c4ccccc4)c(NC4CNC4)cc3N21 | IC50 [6]: 0.33 µM; IC50 [7]: 0.087 µM; Cmax [8]: 5.3 ng/mL; AUC [9]: 0.043 µg·h/mL; CL free [3]: 12 L/h/kg; bioavailability [10]: 5.4%; IC50 [11]: 13 µM; clearance [12]: 4.9 L/h/kg; CL free [14]: 28 L/h/kg; IC50 [19]: 8.5 µM; IC50 [20]: 0.86 µM; half-life [13]: 5.9 h; IC50 [21]: 0.46 µM
1.6 nm/s | 3 µM | 0.39 µM |  | 4.2 µM | Cc1cc2c(cc1NC1CNC1)N1C(=NNC(=O)[C@@H]1C)CO2 | CL free [14]: < 4.4 L/h/kg
 | > 50 µM | > 50 µM |  |  | O=C1NN=C2COc3ccc(NC4CNC4)cc3N2C1c1ccccc1 (stereo unspecified) | 
 |  | 31 µM |  |  | O=C1CN2C(=NN1)COc1ccc(NCC3CCNCC3)cc12 | 
 |  | > 50 µM |  |  | O=C1CN2C(=NN1)COc1ccc(NC(=O)CC3CCNCC3)cc12 | 
 |  | > 50 µM |  |  | O=C1CN2C(=NN1)COc1ccc(NC3COC3)cc12 | 
